Results from patent US20260262643A1, “HERBICIDAL BENZOXAZINES” (FMC CORPORATION, priority 2022, published 2026).

Experiments:
barnyardgrass [1] = assay: Test C preemergence; type: in vivo, Echinochloa crusgalli; conditions: 0 to 100 scale (0 no effect, 100 complete control); for Barnyardgrass plant response rating: preemergence
Method in brief: (§1)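 Seeds sown in loam soil–sand blend received a directed preemergence soil spray of test chemical in non-phytotoxic solvent with surfactant; postemergence plants (2–10 cm, one- to two-leaf stage) were sprayed with the same formulation. Greenhouse-held 10 days, then visually rated for injury versus untreated controls, 0 (no effect) to 100 (complete control).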

blackgrass [2] = assay: Test C preemergence; type: in vivo, Alopecurus myosuroides; conditions: 0 to 100 scale (0 no effect, 100 complete control); for Blackgrass plant response rating: preemergence
Method in brief: as §1

corn [3] = assay: Test C preemergence; type: in vivo, Zea mays; conditions: 0 to 100 scale (0 no effect, 100 complete control); for Corn plant response rating: preemergence
Method in brief: as §1

green foxtail [4] = assay: Test C preemergence; type: in vivo, Setaria viridis; conditions: 0 to 100 scale (0 no effect, 100 complete control); for Foxtail, Green plant response rating: preemergence
Method in brief: as §1

kochia [5] = assay: Test C preemergence; type: in vivo, Bassia scoparia; conditions: 0 to 100 scale (0 no effect, 100 complete control); for Kochia plant response rating: preemergence
Method in brief: as §1

oat, wild [6] = assay: Test C preemergence; type: in vivo, Avena fatua; conditions: 0 to 100 scale (0 no effect, 100 complete control); for Oat, Wild plant response rating: preemergence
Method in brief: as §1

pigweed, palmer [7] = assay: Test C preemergence; type: in vivo, Amaranthus palmeri; conditions: 0 to 100 scale (0 no effect, 100 complete control); for Pigweed, Palmer plant response rating: preemergence
Method in brief: as §1

ragweed [8] = assay: Test C preemergence; type: in vivo, Ambrosia artemisiifolia; conditions: 0 to 100 scale (0 no effect, 100 complete control); for Ragweed plant response rating: preemergence
Method in brief: as §1

ryegrass, Italian [9] = assay: Test C preemergence; type: in vivo, Lolium multiflorum; conditions: 0 to 100 scale (0 no effect, 100 complete control); for Ryegrass, Italian plant response rating: preemergence
Method in brief: as §1

soybean [10] = assay: Test C preemergence; type: in vivo, Glycine max; conditions: 0 to 100 scale (0 no effect, 100 complete control); for Soybean plant response rating: preemergence
Method in brief: as §1

wheat [11] = assay: Test C preemergence; type: in vivo, Triticum aestivum; conditions: 0 to 100 scale (0 no effect, 100 complete control); for Wheat plant response rating: preemergence
Method in brief: as §1

barnyardgrass [12] = assay: Test C postemergence; type: in vivo, Echinochloa crusgalli; conditions: 10 days
Method in brief: as §1

blackgrass [13] = assay: Test C postemergence; type: in vivo, Alopecurus myosuroides; conditions: 10 days
Method in brief: as §1

corn [14] = assay: Test C postemergence; type: in vivo, Zea mays; conditions: 10 days
Method in brief: as §1

green foxtail [15] = assay: Test C postemergence; type: in vivo, Setaria viridis; conditions: 10 days
Method in brief: as §1

kochia [16] = assay: Test C postemergence; type: in vivo, Bassia scoparia; conditions: 10 days
Method in brief: as §1

oat, wild [17] = assay: Test C postemergence; type: in vivo, Avena fatua; conditions: 10 days
Method in brief: as §1

pigweed, palmer [18] = assay: Test C postemergence; type: in vivo, Amaranthus palmeri; conditions: 10 days
Method in brief: as §1

ragweed [19] = assay: Test C postemergence; type: in vivo, Ambrosia artemisiifolia; conditions: 10 days
Method in brief: as §1

ryegrass, Italian [20] = assay: Test C postemergence; type: in vivo, Lolium multiflorum; conditions: 10 days
Method in brief: as §1

soybean [21] = assay: Test C postemergence; type: in vivo, Glycine max; conditions: 10 days
Method in brief: as §1

wheat [22] = assay: Test C postemergence; type: in vivo, Triticum aestivum; conditions: 10 days
Method in brief: as §1

galium = assay: Test C postemergence; type: in vivo, Galium aparine; conditions: 10 days
Method in brief: as §1

horseweed = assay: Test C postemergence; type: in vivo, Erigeron canadensis; conditions: 10 days
Method in brief: as §1

barnyardgrass [23] = assay: Test D flooded paddy test; type: in vivo, Echinochloa crus-galli; conditions: 250 g ai/ha, applied to paddy water, visual rating after 13 to 14 days, scale 0 to 100 (0 no effect, 100 complete control)
Method in brief: (§2)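 Compounds go straight into paddy water over 2-leaf plants in pots flooded to 3 cm. Greenhouse holding lasts 13 to 14 days. Injury is scored by eye against controls from 0 (none) to 100 (complete control).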

ducksalad = assay: Test D flooded paddy test; type: in vivo, Heteranthera limosa; conditions: 250 g ai/ha, applied to paddy water, visual rating after 13 to 14 days, scale 0 to 100 (0 no effect, 100 complete control)
Method in brief: as §2

rice = assay: Test D flooded paddy test; type: in vivo, Oryza sativa; conditions: 250 g ai/ha, applied to paddy water, visual rating after 13 to 14 days, scale 0 to 100 (0 no effect, 100 complete control)
Method in brief: as §2

sedge, umbrella = assay: Test D flooded paddy test; type: in vivo, Cyperus difformis; conditions: 250 g ai/ha, applied to paddy water, visual rating after 13 to 14 days, scale 0 to 100 (0 no effect, 100 complete control)
Method in brief: as §2

[24] = 125 g ai/ha, postemergence, 0 to 100 scale, 0 no effect, 100 complete control
[25] = 500 g ai/ha, postemergence, 0 to 100 scale (0 no effect, 100 complete control)
[26] = Preemergence, 500 g ai/ha, visual rating after 10 days
[27] = Postemergence, 500 g ai/ha, visual 0 to 100 scale (0 no effect, 100 complete control)

Cc1ccc(-n2cnc(C(C)C)n2)cc1C(=O)N1CC(C(F)(F)F)Oc2c(Cl)cccc21 (single isomer, unassigned) [Compound 291]
Barnyardgrass plant response rating (barnyardgrass [1]; 500 g ai/ha): 100 | Barnyardgrass plant response rating (barnyardgrass [1]; Test C, 125 g ai/ha): 100 | Blackgrass plant response rating (blackgrass [2]; 500 g ai/ha): 70 | Blackgrass plant response rating (blackgrass [2]; Test C, 125 g ai/ha): 50 | Corn plant response rating (corn [3]; 500 g ai/ha): 50 | Corn plant response rating (corn [3]; Test C, 125 g ai/ha): 30 | Foxtail, Green plant response rating (green foxtail [4]; 500 g ai/ha): 100 | Foxtail, Green plant response rating (green foxtail [4]; Test C, 125 g ai/ha): 100 | Kochia plant response rating (kochia [5]; 500 g ai/ha): 100 | Kochia plant response rating (kochia [5]; Test C, 125 g ai/ha): 80 | Oat, Wild plant response rating (oat, wild [6]; 500 g ai/ha): 80 | Oat, Wild plant response rating (oat, wild [6]; Test C, 125 g ai/ha): 60 | Pigweed, Palmer plant response rating (pigweed, palmer [7]; 500 g ai/ha): 100 | Pigweed, Palmer plant response rating (pigweed, palmer [7]; Test C, 125 g ai/ha): 100 | Ragweed plant response rating (ragweed [8]; 500 g ai/ha): 60 | Ragweed plant response rating (ragweed [8]; Test C, 125 g ai/ha): 40 | Ryegrass, Italian plant response rating (ryegrass, Italian [9]; 500 g ai/ha): 100 | Ryegrass, Italian plant response rating (ryegrass, Italian [9]; Test C, 125 g ai/ha): 90 | Soybean plant response rating (soybean [10]; 500 g ai/ha): 100 | Soybean plant response rating (soybean [10]; Test C, 125 g ai/ha): 90 | Wheat plant response rating (wheat [11]; 500 g ai/ha): 50 | Wheat plant response rating (wheat [11]; Test C, 125 g ai/ha): 30 | Plant response rating, Barnyardgrass (barnyardgrass [12]; [24]): 30 | Plant response rating, Barnyardgrass (barnyardgrass [12]; [25]): 90 | Plant response rating, Blackgrass (blackgrass [13]; [24]): 0 | Plant response rating, Blackgrass (blackgrass [13]; [25]): 50 | Plant response rating, Corn (corn [14]; [24]): 20 | Plant response rating, Corn (corn [14]; [25]): 80 | Plant response rating, Foxtail, Green (green foxtail [15]; [24]): 30 | Plant response rating, Foxtail, Green (green foxtail [15]; [25]): 90 | Plant response rating, Kochia (kochia [16]; [24]): 90 | Plant response rating, Kochia (kochia [16]; [25]): 100 | Plant response rating, Oat, Wild (oat, wild [17]; [24]): 50 | Plant response rating, Oat, Wild (oat, wild [17]; [25]): 80 | Plant response rating, Pigweed, Palmer (pigweed, palmer [18]; [24]): 100 | Plant response rating, Pigweed, Palmer (pigweed, palmer [18]; [25]): 100 | Plant response rating, Ragweed (ragweed [19]; [24]): 70 | Plant response rating, Ragweed (ragweed [19]; [25]): 80 | Plant response rating, Ryegrass, Italian (ryegrass, Italian [20]; [24]): 70 | Plant response rating, Ryegrass, Italian (ryegrass, Italian [20]; [25]): 80 | Plant response rating, Soybean (soybean [21]; [24]): 90 | Plant response rating, Soybean (soybean [21]; [25]): 100 | Plant response rating, Wheat (wheat [22]; [24]): 30 | Plant response rating, Wheat (wheat [22]; [25]): 70 | Plant response rating, Galium (galium; [24]): 100 | Plant response rating, Galium (galium; [25]): 100 | Plant response rating, Horseweed (horseweed; [24]): 60 | Plant response rating, Horseweed (horseweed; [25]): 60 | Plant response rating, Barnyardgrass (Flood) (barnyardgrass [23]): 40 | Plant response rating, Ducksalad (Flood) (ducksalad): 45 | Plant response rating, Rice (Flood) (rice): 0 | Plant response rating, Sedge, Umbrella (Flood) (sedge, umbrella): 95

CCc1ncn(-c2ccc(C)c(C(=O)N3CC(C(F)(F)F)Oc4c(Cl)cccc43)c2)n1 (single isomer, unassigned) [Compound 218]
Plant response rating, Barnyardgrass (barnyardgrass [1]; [26]): 100 | Barnyardgrass plant response rating (barnyardgrass [1]; Test C, 125 g ai/ha): 100 | Plant response rating, Blackgrass (blackgrass [2]; [26]): 80 | Blackgrass plant response rating (blackgrass [2]; Test C, 125 g ai/ha): 40 | Plant response rating, Corn (corn [3]; [26]): 60 | Corn plant response rating (corn [3]; Test C, 125 g ai/ha): 20 | Plant response rating, Foxtail, Green (green foxtail [4]; [26]): 100 | Foxtail, Green plant response rating (green foxtail [4]; Test C, 125 g ai/ha): 100 | Plant response rating, Kochia (kochia [5]; [26]): 100 | Kochia plant response rating (kochia [5]; Test C, 125 g ai/ha): 90 | Plant response rating, Oat, Wild (oat, wild [6]; [26]): 90 | Oat, Wild plant response rating (oat, wild [6]; Test C, 125 g ai/ha): 60 | Plant response rating, Pigweed, Palmer (pigweed, palmer [7]; [26]): 100 | Pigweed, Palmer plant response rating (pigweed, palmer [7]; Test C, 125 g ai/ha): 100 | Plant response rating, Ragweed (ragweed [8]; [26]): 80 | Ragweed plant response rating (ragweed [8]; Test C, 125 g ai/ha): 20 | Plant response rating, Ryegrass, Italian (ryegrass, Italian [9]; [26]): 90 | Ryegrass, Italian plant response rating (ryegrass, Italian [9]; Test C, 125 g ai/ha): 90 | Plant response rating, Soybean (soybean [10]; [26]): 100 | Soybean plant response rating (soybean [10]; Test C, 125 g ai/ha): 90 | Plant response rating, Wheat (wheat [11]; [26]): 80 | Wheat plant response rating (wheat [11]; Test C, 125 g ai/ha): 30 | Plant response rating, Barnyardgrass (barnyardgrass [12]; [24]): 100 | Plant response rating, Barnyardgrass (barnyardgrass [12]; [27]): 100 | Plant response rating, Blackgrass (blackgrass [13]; [24]): 90 | Plant response rating, Blackgrass (blackgrass [13]; [27]): 100 | Plant response rating, Corn (corn [14]; [24]): 70 | Plant response rating, Corn (corn [14]; [27]): 70 | Plant response rating, Foxtail, Green (green foxtail [15]; [24]): 90 | Plant response rating, Foxtail, Green (green foxtail [15]; [27]): 90 | Plant response rating, Kochia (kochia [16]; [24]): 90 | Plant response rating, Kochia (kochia [16]; [27]): 100 | Plant response rating, Oat, Wild (oat, wild [17]; [24]): 30 | Plant response rating, Oat, Wild (oat, wild [17]; [27]): 80 | Plant response rating, Pigweed, Palmer (pigweed, palmer [18]; [24]): 90 | Plant response rating, Pigweed, Palmer (pigweed, palmer [18]; [27]): 90 | Plant response rating, Ragweed (ragweed [19]; [24]): 80 | Plant response rating, Ragweed (ragweed [19]; [27]): 80 | Plant response rating, Ryegrass, Italian (ryegrass, Italian [20]; [24]): 80 | Plant response rating, Ryegrass, Italian (ryegrass, Italian [20]; [27]): 90 | Plant response rating, Soybean (soybean [21]; [24]): 100 | Plant response rating, Soybean (soybean [21]; [27]): 100 | Plant response rating, Wheat (wheat [22]; [24]): 60 | Plant response rating, Wheat (wheat [22]; [27]): 90 | Plant response rating, Galium (galium; [24]): 100 | Plant response rating, Galium (galium; [27]): 100 | Plant response rating, Horseweed (horseweed; [24]): 0 | Plant response rating, Horseweed (horseweed; [27]): 70 | Plant response rating, Barnyardgrass (Flood) (barnyardgrass [23]): 0 | Plant response rating, Ducksalad (Flood) (ducksalad): 60 | Plant response rating, Rice (Flood) (rice): 0 | Plant response rating, Sedge, Umbrella (Flood) (sedge, umbrella): 80
